Strand notation (5' to 3'): a small letter for the sugar, then the base; units joined by * are phosphorothioate-linked, units joined directly phosphodiester-linked; [ ] holds rarer units or linkages, { } end groups; capitals alone tell only the bases. k = constrained ethyl (cEt); [5mC] = 5-methylcytosine; d = 2'-deoxy (DNA)

The subject of this data set is Yap1 mRNA. In words: Antisense inhibition of human Yap1 in A-431 cells by cEt gapmers, single dose (Example 2, RTS4814). The format is cell-based. An outline of the steps: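 Free uptake, 2,000 nM, ~48 h, A-431 at 5,000 cells/well. Readout: RT-qPCR (RTS4814), RIBOGREEN-normalized, % UTC. 16-mer 3-10-3 cEt gapmers, full PS backbone, all C as 5-methylcytosine.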
Where [1] appears, read: Table 18, A-431 cells, 5,000 cells per well, free uptake, 2,000 nM modified oligonucleotide, approx. 48 hours, RTS4814, normalized to RIBOGREEN, Yap1 mRNA as percent of untreated control.
The mark [2] stands for this setting: Table 25, Yap1 mRNA as percent of untreated control, 3-10-3 cEt gapmers targeting SEQ ID NO.: 1, and 2.
The mark [3] stands for this setting: Table 22, Yap1 mRNA as percent of untreated control, 3-10-3 cEt gapmers, single dose.
Setting [4] is: Table 33, Yap1 mRNA, percent of untreated control, 3-10-3 cEt gapmers targeting SEQ ID NO.: 1, and 2.
The mark [5] stands for this setting: A-431 cells, 5,000 cells per well, free uptake, 2,000 nM modified oligonucleotide, approx. 48 hours, RTS4814, normalized to RIBOGREEN, Table 4, asterisk (*) = targets amplicon region of primer probe set.
Where [6] appears, read: Table 24, Yap1 mRNA as percent of untreated control, 3-10-3 cEt gapmers targeting SEQ ID NO.: 1, and 2.
Where [7] appears, read: Yap1 mRNA as percent of untreated control, A-431 cells, 3-10-3 cEt gapmers targeting SEQ ID NO.: 1, and 2, Table 30.
Where [8] appears, read: Table 21, Yap1 mRNA, percent of untreated control, 3-10-3 cEt gapmers targeting SEQ ID NO.: 1 and 2.
Where [9] appears, read: Table 19, A-431 cells, 5,000 cells per well, free uptake, 2,000 nM modified oligonucleotide, approx. 48 hours, RTS4814, normalized to RIBOGREEN, Yap1 mRNA as percent of untreated control.
[10] abbreviates: Table 20, Yap1 mRNA, percent of untreated control, 3-10-3 cEt gapmers targeting SEQ ID NO.: 1 and 2.
Where [11] appears, read: Table 6, A-431 cells, 5,000 cells per well, free uptake, 2,000 nM modified oligonucleotide, approx. 48 hours, RTS4814, normalized to RIBOGREEN, Yap1 mRNA relative to untreated control cells.
[12] abbreviates: Table 23, Yap1 mRNA as percent of untreated control, 3-10-3 cEt gapmers, single dose.
Setting [13] is: Table 5, A-431 cells, 5,000 cells per well, free uptake, 2,000 nM modified oligonucleotide, approx. 48 hours, RTS4814, normalized to RIBOGREEN, Yap1 mRNA relative to untreated control cells.

Regarding “1076068 (k[5mC]*kT*kA*dA*dA*dA*dT*dG*dA*d[5mC]*d[5mC]*dT*dT*kA*kG*k[5mC]; antisense) [Compound 1076068]”, the “YAP1 (% UTC)” value under setting [1] is recorded as 73 % UTC.

On to “1075915 (kA*kA*kT*dT*dT*dA*dG*dG*dA*dT*dG*d[5mC]*d[5mC]*kT*kT*kT; antisense) [Compound 1075915]”, for which the “YAP1 (% UTC)” value under setting [2] is 16 % UTC. As to “1075432 (antisense k[5mC]*kT*kA*dA*d[5mC]*dT*dA*dA*dA*d[5mC]*dT*dG*dA*kT*kT*k[5mC]) [Compound 1075432]”, the “YAP1 (% UTC)” value under setting [3] was 121 % UTC.

As for “1076452 (kG*kG*kA*d[5mC]*dT*dA*dT*dA*dG*d[5mC]*d[5mC]*d[5mC]*dT*kT*kA*kA; antisense) [Compound 1076452]”, under setting [1], the “YAP1 (% UTC)” value was 16 % UTC.

Consider “1075411 (antisense k[5mC]*kA*kA*dA*dA*dA*dG*dG*dG*dT*dA*dA*dG*kG*k[5mC]*kA) [compound 1075411]”, for which the “YAP1 (% UTC)” value under setting [4] amounted to 39 % UTC. In the case of “1075080 (antisense kA*kT*kT*dA*d[5mC]*dA*dA*dA*dG*dA*d[5mC]*dA*dG*k[5mC]*k[5mC]*k[5mC]) [Compound 1075080]”, under setting [3], the “YAP1 (% UTC)” value came out at 18 % UTC.

Regarding “716391 (kG*kG*kA*dG*d[5mC]*dA*d[5mC]*dT*d[5mC]*dT*dG*dA*d[5mC]*kT*kG*kA; antisense) [Compound 716391]”, the “YAP1 (% UTC)” value under setting [5] is 44 % UTC. On the same count and under the same terms, next, “716382 (kA*kG*k[5mC]*dA*dT*dG*dG*d[5mC]*d[5mC]*dT*dT*d[5mC]*d[5mC]*kT*kG*kG; antisense) [Compound 716382]”: 73 % UTC. As to “1074794 (k[5mC]*kA*kA*dA*dT*d[5mC]*dA*dA*dT*dG*dT*dG*d[5mC]*kT*k[5mC]*k[5mC]; antisense) [Compound 1074794]”, the “YAP1 (% UTC)” value under setting [6] was 5 % UTC.

Regarding “1076394 (k[5mC]*k[5mC]*kT*dA*dA*dA*dT*dT*dA*dG*dA*d[5mC]*dT*kT*kG*kA; antisense) [Compound 1076394]”, the “YAP1 (% UTC)” value under setting [6] is on record as 20 % UTC. On to “716394 (kG*kT*kT*dG*d[5mC]*dT*dG*d[5mC]*dA*dG*dT*d[5mC]*dG*k[5mC]*kA*kT; antisense) [Compound 716394]”, for which, under setting [5], the “YAP1 (% UTC)” value is given as 120 % UTC. Regarding “1074352 (antisense k[5mC]*kA*kT*dG*d[5mC]*dT*dT*dA*dG*dT*d[5mC]*d[5mC]*dA*k[5mC]*kT*kG) [compound 1074352]”, the “YAP1 (% UTC)” value under setting [7] came to 69 % UTC. Consider “716550 (kG*k[5mC]*kA*d[5mC]*dT*dG*dA*dA*dT*dA*dT*dT*dG*k[5mC]*k[5mC]*kA; antisense) [Compound 716550]”, for which, under setting [5], the “YAP1 (% UTC)” value stood at 77 % UTC. Same read-out and setting: next, “716352 (k[5mC]*kT*kG*d[5mC]*dG*d[5mC]*d[5mC]*d[5mC]*d[5mC]*dG*dG*d[5mC]*dT*k[5mC]*k[5mC]*kA; antisense) [Compound 716352]”: 105 % UTC. As to “1074759 (k[5mC]*kA*kA*d[5mC]*d[5mC]*dA*dA*dG*dA*dA*dG*d[5mC]*dA*kG*kT*kT; antisense) [Compound 1074759]”, the “YAP1 (% UTC)” value under setting [8] was 43 % UTC.

Turning to “1076391 (k[5mC]*kA*kA*dA*dT*dA*dT*dA*dG*dT*dT*dA*dG*k[5mC]*k[5mC]*kT; antisense) [Compound 1076391]”, the “YAP1 (% UTC)” value under setting [8] came to 22 % UTC. Take “1075123 (k[5mC]*kT*kT*dT*dA*dG*dG*dA*dA*dA*dG*dG*dG*kT*kA*kT; antisense) [compound 1075123]”: under setting [4], the “YAP1 (% UTC)” value worked out at 21 % UTC.

In the case of “1075941 (kA*kG*kT*d[5mC]*dA*dA*dT*dA*dG*d[5mC]*dA*dA*dT*k[5mC]*kA*k[5mC]; antisense) [Compound 1075941]”, the “YAP1 (% UTC)” value under setting [9] worked out at 11 % UTC.

For “1075633 (antisense k[5mC]*kT*kA*dT*dA*dT*dT*dG*dG*d[5mC]*dT*d[5mC]*d[5mC]*kT*kA*kG) [compound 1075633]”, the “YAP1 (% UTC)” value (Yap1 mRNA as percent of untreated control, A-431 cells, 3-10-3 cEt gapmers targeting SEQ ID NO.: 1, and 2, Table 31) was determined as 82 % UTC. For “1075142 (antisense kG*kA*kT*dA*dT*dA*d[5mC]*dG*dA*dG*dA*dA*dG*kT*kT*kG) [Compound 1075142]”, under setting [10], the “YAP1 (% UTC)” value came out at 16 % UTC.

In the case of “716543 (antisense kT*kA*kT*dT*dT*dG*dT*dA*dG*d[5mC]*dA*dA*dA*kG*kT*k[5mC]) [Compound 716543]”, the “YAP1 (% UTC)” value under setting [11] was determined as 35 % UTC. As for “1074119 (antisense kG*k[5mC]*kA*d[5mC]*dT*d[5mC]*dG*dG*dA*d[5mC]*d[5mC]*dT*dG*k[5mC]*kG*kG) [Compound 1074119]”, the “YAP1 (% UTC)” value under setting [8] was 71 % UTC.

Turning to “716480 (kG*k[5mC]*kA*dA*dG*dT*d[5mC]*dT*dT*dG*dT*dA*dA*kG*kT*kA; antisense) [Compound 716480]”, the “YAP1 (% UTC)” value under setting [11] is 18 % UTC.

In the case of “1074407 (antisense kT*kA*kA*dA*dG*dT*dA*dT*d[5mC]*dT*dT*dG*d[5mC]*kT*kG*kG) [Compound 1074407]”, the “YAP1 (% UTC)” value under setting [8] is listed as 6 % UTC.

As to “1076425 (k[5mC]*kG*kG*dG*dA*dA*dA*dA*dT*dT*d[5mC]*dT*dG*kG*kA*kG; antisense) [Compound 1076425]”, the “YAP1 (% UTC)” value under setting [12] worked out at 32 % UTC.

“1076038 (kA*kG*kG*d[5mC]*dA*dA*dG*dA*dA*dT*dT*dG*dG*kG*kT*kA; antisense) [Compound 1076038]”: the “YAP1 (% UTC)” value under setting [10] was 11 % UTC. With “1076146 (kG*k[5mC]*kT*dA*dA*dA*dA*d[5mC]*dT*dT*dT*d[5mC]*dA*kT*k[5mC]*k[5mC]; antisense) [compound 1076146]”, the “YAP1 (% UTC)” value (Table 32, Yap1 mRNA, percent of untreated control, 3-10-3 cEt gapmers targeting SEQ ID NO.: 1, and 2) is 23 % UTC. “1075656 (kA*kA*kA*dA*d[5mC]*dG*dG*dT*dT*dT*dT*dT*d[5mC]*kT*kA*kA; antisense) [Compound 1075656]”: the “YAP1 (% UTC)” value under setting [3] was determined as 103 % UTC. For “1075722 (kG*kT*kT*dA*dA*dA*dT*dA*d[5mC]*d[5mC]*dT*dT*d[5mC]*kT*kA*kG; antisense) [Compound 1075722]”, the “YAP1 (% UTC)” value under setting [6] is recorded as 88 % UTC. Take “1075728 (k[5mC]*kT*kT*dT*dA*dT*d[5mC]*dG*dG*dA*dG*dG*d[5mC]*kT*kT*k[5mC]; antisense) [compound 1075728]”: the “YAP1 (% UTC)” value under setting [7] is listed as 15 % UTC.

Regarding “1074598 (antisense k[5mC]*kT*kT*dA*dT*dA*dG*dT*dA*dT*dT*d[5mC]*dT*kA*kT*k[5mC]) [Compound 1074598]”, the “YAP1 (% UTC)” value under setting [10] turned out to be 46 % UTC. In the case of “1075078 (antisense k[5mC]*kA*kA*d[5mC]*dT*dA*dT*dA*d[5mC]*dG*dG*dT*d[5mC]*k[5mC]*kA*kT) [Compound 1075078]”, under setting [10], the “YAP1 (% UTC)” value is given as 3 % UTC. For the substance “1074408 (antisense kG*kA*kT*dT*dA*dA*dA*dG*dT*dA*dT*d[5mC]*dT*kT*kG*k[5mC]) [Compound 1074408]”, the “YAP1 (% UTC)” value under setting [3] is recorded as 23 % UTC.

Regarding “1076331 (k[5mC]*kA*kT*dT*dA*dT*dT*d[5mC]*dA*dG*dT*dA*dG*kT*kT*kG; antisense) [Compound 1076331]”, under setting [2], the “YAP1 (% UTC)” value was found to be 71 % UTC. For “716441 (kG*k[5mC]*k[5mC]*dT*dT*dG*dG*dT*dT*dT*d[5mC]*dA*dG*k[5mC]*kT*kA; antisense) [Compound 716441]”, the “YAP1 (% UTC)” value under setting [11] is reported as 57 % UTC.

For the substance “1074601 (antisense k[5mC]*k[5mC]*kA*dG*d[5mC]*dT*dA*dA*d[5mC]*dT*d[5mC]*dA*dA*kA*kA*k[5mC]) [Compound 1074601]”, the “YAP1 (% UTC)” value under setting [12] is 24 % UTC. For “716380 (kT*kT*kA*dA*dG*dA*dA*dG*dT*dA*dT*d[5mC]*dT*k[5mC]*kT*kG; antisense) [Compound 716380]”, under setting [13], the “YAP1 (% UTC)” value turned out to be 54 % UTC.

Take “716488 (k[5mC]*kA*kT*dT*dA*dT*dT*dA*d[5mC]*dT*d[5mC]*d[5mC]*dT*kG*kT*kA; antisense) [Compound 716488]”: the “YAP1 (% UTC)” value under setting [13] was found to be 67 % UTC. As to “1074149 (antisense kG*k[5mC]*k[5mC]*dG*dA*dG*dG*dT*dG*dG*dA*dG*dA*kA*kG*k[5mC]) [Compound 1074149]”, the “YAP1 (% UTC)” value under setting [9] is 58 % UTC. With “716447 (k[5mC]*k[5mC]*kA*dA*d[5mC]*d[5mC]*dA*dA*d[5mC]*d[5mC]*d[5mC]*d[5mC]*d[5mC]*k[5mC]*k[5mC]*kA; antisense) [Compound 716447]”, the “YAP1 (% UTC)” value under setting [11] amounted to 97 % UTC. Regarding “1074660 (antisense kA*kA*kT*dT*dT*d[5mC]*dA*dT*dT*dA*d[5mC]*dT*dA*k[5mC]*kT*k[5mC]) [Compound 1074660]”, the “YAP1 (% UTC)” value under setting [1] is given as 48 % UTC.

“1075272 (antisense kA*kA*kT*dT*dA*dG*d[5mC]*d[5mC]*dA*dG*d[5mC]*dA*dT*kG*k[5mC]*kA) [Compound 1075272]”: the “YAP1 (% UTC)” value under setting [3] is listed as 110 % UTC.
